# Data published in US20240293562A1, “METHODS FOR USING NEUROTROPHIN RECEPTOR BINDING CONJUGATE COMPOSITIONS IN THE TREATMENT OF A NEUROLOGICAL CONDITION” (Manzanita Pharmaceuticals, Inc., priority 2020, published 2024).
# Test system: Superior cervical ganglia (SCG) neurons
# Experiment: Bioassay of neuronal survival in primary superior cervical ganglia neurons
# Format: cell-based, Sprague Dawley rat
# Conditions: primary SCG neurons from E-21 rat pups, microfluidic devices
# From the text: The SCG assay was adapted to compartmented cultures and updated to grow primary neurons in microfluidic devices SCG neurons were harvested from E-21 Sprague Dawley rat pups. If labeled NGF has similar bioavailability to the unlabeled NGF, i.e., TrkA binding sites remain intact. FIG. 2 (right) compares left panels of study article with right panels showing treatment with NGF only.
substance,measurement,value
nerve growth factor [NGF],neuronal survival,appear to show neuronal survival
